Results as given in the NIST ThermoML archive (doi:10.1016/j.fluid.2010.01.020).
Numbers after ± are expanded uncertainties.

Experiments:
[1] = Crystal
[2] = Molar enthalpy of transition or fusion; conditions: Crystal; DSC
[3] = xn = mol fraction of the nth substance listed; conditions: 101 kPa, Liquid, Vibrating tube method

CCn1cc[n+](C)c1.Cc1ccc(S(=O)(=O)[O-])cc1 [1-ethyl-3-methylimidazolium 4-methylbenzenesulfonate]
[1]
Conditions | Normal melting temperature [°C]
DTA | 49.2 ± 0.4
Solid-Liquid Equilibrium | 53.5 ± 0.4

Conditions | Molar enthalpy of transition or fusion [kcal/mol]
[2] | 4.9 ± 0.115

CCn1cc[n+](C)c1.N#C[S-] [1-ethyl-3-methylimidazolium thiocyanate] + O
mass density [kg/m3], [3]
Conditions | 298.15 K | 308.15 K | 318.15 K | 328.15 K | 338.15 K | 348.15 K
x1 = 0.0248 | 1016 ± 0.63 | 1010.56 ± 0.62 | 1005.23 ± 0.61 | 1000.09 ± 0.6 | 994.12 ± 0.57 | 987.53 ± 0.56
x1 = 0.0635 | 1036.86 ± 0.42 | 1031.47 ± 0.4 | 1025.75 ± 0.4 | 1019.71 ± 0.39 | 1013.39 ± 0.38 | 1006.75 ± 0.39
x1 = 0.1377 | 1062.14 ± 0.3 | 1056.21 ± 0.29 | 1049.96 ± 0.29 | 1043.71 ± 0.28 | 1036.7 ± 0.28 | 1030.27 ± 0.28
x1 = 0.2145 | 1077.88 ± 0.21 | 1071.45 ± 0.21 | 1064.98 ± 0.2 | 1058.44 ± 0.2 | 1051.85 ± 0.2 | 1045.17 ± 0.2
x1 = 0.3381 | 1092.51 ± 0.23 | 1086.08 ± 0.23 | 1079.64 ± 0.23 | 1073.2 ± 0.22 | 1066.76 ± 0.22 | 1060.28 ± 0.22
x1 = 0.4198 | 1098.72 ± 0.27 | 1092.33 ± 0.26 | 1085.98 ± 0.26 | 1079.65 ± 0.26 | 1073.3 ± 0.25 | 1066.97 ± 0.25
x1 = 0.5599 | 1105.92 ± 0.4 | 1099.59 ± 0.4 | 1093.4 ± 0.39 | 1087.19 ± 0.39 | 1081 ± 0.38 | 1074.85 ± 0.37
x1 = 0.6524 | 1109.2 ± 0.51 | 1102.99 ± 0.51 | 1096.81 ± 0.5 | 1090.66 ± 0.49 | 1084.56 ± 0.49 | 1078.47 ± 0.48
x1 = 0.7369 | 1111.59 ± 0.63 | 1105.42 ± 0.62 | 1099.15 ± 0.61 | 1093.24 ± 0.61 | 1087.14 ± 0.6 | 1081.08 ± 0.59
x1 = 0.8256 | 1113.68 ± 0.77 | 1107.51 ± 0.76 | 1101.41 ± 0.75 | 1095.36 ± 0.74 | 1089.34 ± 0.73 | 1083.37 ± 0.72
x1 = 0.9263 | 1115.64 ± 0.94 | 1109.54 ± 0.93 | 1103.5 ± 0.92 | 1097.51 ± 0.91 | 1091.43 ± 0.9 | 1085.62 ± 0.88
x1 = 1 | 1116.84 ± 1.1 | 1110.73 ± 1.1 | 1104.67 ± 1.1 | 1098.69 ± 1 | 1092.73 ± 1 | 1086.83 ± 1

O [water] + CCn1cc[n+](C)c1.N#C[S-]
[3], x2 = 0
Conditions | mass density [kg/m3]
308.15 K | 992.03 ± 0.11
318.15 K | 987.02 ± 0.11
328.15 K | 981.69 ± 0.11
338.15 K | 977.03 ± 0.11
348.15 K | 971.75 ± 0.11
